Experimental data as given in US20150315154A1 (COUNCIL OF SCIENTIFIC & INDUSTRIAL RESEARCH, priority 2012, published 2015).

Legend:
[1] = system: CHO cells (Chinese hamstar ovarian cancer cells); assay: MTT cell viability assay, CHO cells; format: cell-based, Chinese hamster; conditions: CHO cell line; after 24 h as well as after 48 h
[2] = system: B16F10 cells (mouse melanoma); assay: FITC-Annexin V / PI flow cytometry apoptosis assay, B16F10 cells; format: cell-based; conditions: 25 μM/mL, 1:1:1 lipid:DOPC:Q16TG, 24 h
Excerpt: (§1) Significant increase of both FITC (fluorescence isothio cyanate) and PE (phycoerythrin) signal in histidinylated lipid treated B16F10 cells confirm apoptosis inducing property of these lipids after 24 hrs. In a flow cytometric quadrant (FITC vs PE), the lower left=(LL) panel represents normal cells and lower right (LR) panel represents early apoptotic cells which increase FITC signal only. Whereas upper right (UR) panel represents late apoptotic cells which increases both FITC and PE signaling and upper left (UL) panel represents necrotic cell only which increases PE signal only. […]
(§2) To quantify apoptotic cell death, we studied the in vitro apoptosis induction efficacy of the presently disclosed histidinylated cationic amphiphiles in mouse melanoma (B16F10) and human lung carcinoma (A549) as model malignant cells by flow cytometry using the FITC-Annexin V Apoptosis Detection Kit (Sigma). […]
(§3) B16F10 & A549 cells were treated with all four histidinylated lipids and liposomal formulation of hydrophobic anti-cancer drug dexamethasone containing DOPC and the helper lipid Q16TG (in 1:1:1 mole ratio of histidinylated lipid:DOPC:Q16TG, 25 μM/mL). […] After 24 h of treatment, cells were stained with annexin V and PI (according to manufacturer protocol, Sigma) and analysed in a flow cytometer (BD FacsCanto II). […]

[3] = MTT cell viability assay, normal RAW 264.7 cells; format: cell-based; conditions: mouse, RAW 264.7 cells (non-cancerous mouse macrophage cells), after 24 and 48 h
B16F10 melanoma tumor = assay: Tumour growth inhibition assay, B16F10 melanoma in C57BL/6J mice; format: in vivo, mouse; conditions: liposomes 1:1:1 with DOPC:Q16TG injected at tumour site on day 14, 16, 18, 21, 24
[4] = system: A549 cells (human lung carcinoma cells); assay: cells; conditions: A549, 24 h, read-out: cell viability
Description: (§4) The absorption obtained with reduced formazan with cells in the absence of lipids was taken to be 100. The assay was done after 24 (A) and 48 (B) hrs of the treatment.
(§5) The yellow tetrazolium salt (MTT) is reduced by mitochondrial dehydrogenase enzyme from metabolically active cells to form insoluble purple formazan crystals, which are solubilized by the addition of a mixture of DMSO & MeOH. The color can then be quantified by spectrophotometric method. For each cell type a linear relationship between cell number and absorbance is established, enabling accurate, straightforward quantification of changes in proliferation.
(§6) Cells were seeded at a density of 10000 (for B16F10, A549, MCF-7 & CHO) Or 15000 (for Raw264.7) per well in a 96-well plate for 18-24 h before the treatment. Cells were incubated with the liposomes of the presently described histidinylated cationic amphiphiles in the concentration range 40-16 μmol/mL in serum free medium. Immediately before the treatment, cells plated in the 96-well plate were washed with PBS (2×100 μL). After 4 h of incubation, the medium was replaced with fresh complete medium containing 10% FBS. The 10 μl of freshly prepared MTT solution in PBS (5 mg/mL) was added to each well of the plate after 24 or 48 h. The yellow tetrazolium salt (MTT) was reduced by mitochondrial dehydrogenase enzyme from metabolically active cells to form insoluble purple formazan crystals, which are solubilized by the addition of a mixture of DMSO & MeOH. The intensities of color were then quantified by spectrophotometric means. For each cell type a linear relationship between cell number and absorbance was established, enabling accurate, straightforward quantification of changes in proliferation.

[5] = system: A549 cells (human lung carcinoma); assay: FITC-Annexin V / PI flow cytometry apoptosis assay, A549 cells; format: cell-based; conditions: 25 μM/mL, 1:1:1 lipid:DOPC:Q16TG, 24 h
Excerpt: as §1, with “FITC” for “FITC (fluorescence isothio cyanate)”, “PE” for “PE (phycoerythrin)”, “A549” for “B16F10”, “inducibility” for “inducing”, “left (LL)” for “left=(LL)”
as §2, §3

[6] = system: mRNA of Bcl-2, Bcl-xL, BAX, Caspase 3, Caspase 9 in A549 cells; assay: Semi-quantitative RT-PCR of apoptosis related genes in A549 cells; format: cell-based, human; conditions: 25 μM/mL, 24 h, vs untreated cells
Description: FIG. 11 Describes reverse transcription-PCR analysis of (BAX, BAK, Caspase 3 & 9) and anti-apoptotic genes (Bcl-2, Bcl-xL & NF-kB) in A549 cells after 24 h treatment with histidinylated lipids. […] After 4 h the medium was discarded and 3 mL of DMEM medium (Sigma) containing 10% fetal bovine serum was added to each well and left for 24 h. After 24 h, mRNAs were extracted from all the cells, cDNA was synthesized by Reverse transcription reaction and amplified by Polymerase Chain Reaction and finally resolved in 2% agarose gel.
Next, toward obtaining mechanistic insights into the origin of the observed in-vitro apoptosis inducing properties of the presently disclosed histidinylated lipids, we conducted conventional RT-PCR (Reversed transcriptase polymerase chain reaction) assays. Effect of the histidinylated lipids on the mRNA expression of various apoptosis related genes were analyzed by RT-PCR. The human lung carcinoma (A549) cells as a reference, were treated with the liposomal formulations of the histidinylated lipid containing DOPC & helper lipid Q16TG (25 μM/mL) and untreated cells were used as control. After 24 h, the total mRNA was isolated by conventional method using trizol. RT-PCR products were resolved on a 2% agarose gel electrophoresis and visualized with ethidium bromide. Our findings are consistent with the apoptosis inducing abilities of the presently disclosed histidinylated lipids being mediated via inhibition of transcription of the anti-apoptotic Bcl-2 & Bcl-xL genes & via activation of pro-apoptotic BAX & BAK signal transduction pathways. […] 18S m-RNA was used as loading control for all these lanes (FIG. 11).
Semi-quantitative RT-PCR analysis was performed to measure the changes in gene expression of treated cells in contrast to the untreated cells. A549 cells (ATCC) were seeded at a density of 10^6 cells/well in a 6 well plate usually 18-24 h before transfection. […] Cells were washed with phosphate-buffered saline (PBS), pH 7.4 (1×100 μL) and the 1 mL liposomal solutions were added to the cells. […] Then the cells were incubated at a humidified atmosphere containing 5% CO2 at 37° C. for 24 h. After 24 h of transfection, lipoplex treated and untreated cells were lysed directly in 6-well plates with 1 mL of TRIzol® reagent (Invitrogen) following removal of media and washing with PBS (1 mL). The cells were dissolved in TRI Reagent and cell lysates were pipetted several times to clear the haziness. Cell lysates were taken in 1.5 mL centrifuge tubes, after 10 min 0.2 mL chloroform was added. The samples were covered tightly and shaken vigorously for 15 sec, incubated for 10 min at room temperature and centrifuged at 14,000×g for 15 min at 4° C. Following centrifugation, the mixture separates into a lower red phenol-chloroform phase, interphase and the colourless upper aqueous phase. RNA remains exclusively in the aqueous phase whereas DNA and proteins are in the interphase and organic phase. Aqueous phase was transferred in to a fresh tube; 0.8 mL of isopropanol was added and mixed with pipette, kept for 15 min at −20° C. and centrifuged at 20,000 g for 20 min at 4° C. The supernatant was removed and the RNA pellet was washed with 500 μL cold 75% ethanol and centrifuged at 20,000 g for 10 min at 4° C. Ethanol was aspirated out and the pellet air-dried by inverting the tube. Finally the RNA pellet was dissolved in 15 μL of DEPC treated water, the ODs measured at 260 and 280 nm and the concentrations and purities of RNAs were calculated.

in vitro = conditions: African green monkey, COS-1 cells (non-cancerous)
Description: as §4, §5, §6

[7] = system: non-cancerous healthy COS-1 cells; conditions: normal COS-1 cells; after 24 and 48 h
Description: as §4, §5, §6

Compound: CCCCCCCCCCCCCCCCOC(=O)C[C@H](NC(=O)[C@@H](N)Cc1c[nH]cn1)C(=O)OCCCCCCCCCCCCCCCC
- cytotoxicity [1]: most potent cytotoxicity
- apoptosis induction (annexin V / PI) [2]: enhanced apoptosis
- viability [3]: > 80%
- tumor growth inhibition (B16F10 melanoma tumor): highest tumor growth inhibition
- viability at 40 µM [4]: 20 to 40%
- apoptosis induction (annexin V / PI) [5]: enhanced apoptosis
- Bcl-2 mRNA level [6]: significantly decreased mRNA levels
- Bcl-xL mRNA level [6]: significantly decreased mRNA levels
- Caspase 3 expression [6]: up regulation
- Caspase 9 expression [6]: up regulation
- expression of pro-apoptotic gene BAX [6]: up regulation
- viability (in vitro): ~70%

Compound: CCCCCCCCCCCCCCCCCCOC(=O)C[C@H](NC(=O)[C@@H](N)Cc1c[nH]cn1)C(=O)OCCCCCCCCCCCCCCCCCC
- viability [3]: > 80%
- tumor growth inhibition (B16F10 melanoma tumor): moderate tumour growth inhibition
- viability at 40 µM [4]: 20 to 40%
- Bcl-2 mRNA level [6]: did not show significant down regulation
- Bcl-xL mRNA level [6]: did not show significant down regulation
- Caspase 3 expression [6]: up regulation
- Caspase 9 expression [6]: up regulation
- expression of pro-apoptotic gene BAX [6]: up regulation
- viability (in vitro): ~70%

Compound: CCCCCCCCCCCCCCCCOC(=O)CC[C@H](NC(=O)[C@@H](N)Cc1c[nH]cn1)C(=O)OCCCCCCCCCCCCCCCC
- cytotoxicity [1]: most potent cytotoxicity
- apoptosis induction (annexin V / PI) [2]: enhanced apoptosis
- viability [3]: > 80%
- tumor growth inhibition (B16F10 melanoma tumor): highest tumor growth inhibition
- viability at 40 µM [4]: 20 to 40%
- apoptosis induction (annexin V / PI) [5]: enhanced apoptosis
- Bcl-2 mRNA level [6]: significantly decreased mRNA levels
- Bcl-xL mRNA level [6]: significantly decreased mRNA levels
- Caspase 3 expression [6]: up regulation
- Caspase 9 expression [6]: up regulation
- expression of pro-apoptotic gene BAX [6]: up regulation
- viability (in vitro): ~70%

Compound: CCCCCCCCCCCCCCCCCCOC(=O)CC[C@@H](NC(=O)[C@@H](N)Cc1ncc[nH]1)C(=O)OCCCCCCCCCCCCCCCCCC.Cl.Cl [HE-18, 2-((S)-2-ammonio-3-((R)-1,5-bis(octaadecyloxy)-1,5-dioxopentan-2-ylamino)-3-oxopropyl)-1H-imidazol-3-iumchloride]
- cytotoxicity [1]: most potent cytotoxicity
- tumor growth inhibition (B16F10 melanoma tumor): moderate tumour growth inhibition
- cell viability [7]: ~70%
- Bcl-2 mRNA level [6]: did not show significant down regulation
- Bcl-xL mRNA level [6]: did not show significant down regulation
- Caspase 3 expression [6]: up regulation
- Caspase 9 expression [6]: up regulation
- expression of pro-apoptotic gene BAX [6]: up regulation
